Broadly, the IC50 is the concentration at which inhibition is half-maximal.

Structures are written as SMILES.

One assay deals with T1, PD-1/PD-L1 protein/protein interaction (Homo sapiens, UniProt Q9NZQ7).
T1 construct: Recombinant human PD-L1 protein (19-238) with a His-tag at the C-terminus; purchased AcroBiosystems PD1-H5229 (PD-L1); PD1-H5257 (PD-1)
T1 sequence (Q9NZQ7 19-238): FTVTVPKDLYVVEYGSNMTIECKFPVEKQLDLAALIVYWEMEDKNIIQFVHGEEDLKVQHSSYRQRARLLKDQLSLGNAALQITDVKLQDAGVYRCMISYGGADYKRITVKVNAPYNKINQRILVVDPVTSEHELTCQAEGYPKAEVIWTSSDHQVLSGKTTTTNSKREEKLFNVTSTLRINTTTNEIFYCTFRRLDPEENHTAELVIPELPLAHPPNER
Kind of assay: PD-1/PD-L1 homogenous time-resolved fluorescence (HTRF) binding assay.
Conditions: not given
The method, then:
Resolved Fluorescence (HTRF) Binding Assay
The assays were conducted in a standard black 384-well polystyrene plate with a final volume of 20 μL. Inhibitors were first serially diluted in DMSO and then added to the plate wells before the addition of other reaction components. The final concentration of DMSO in the assay was 1%. The assays were carried out at 25° C. in the PBS buffer (pH 7.4) with 0.05% Tween-20 and 0.1% BSA. […] Plates were centrifuged and proteins were preincubated with inhibitors for 40 min. The incubation was followed by the addition of 10 μL of HTRF detection buffer supplemented with Europium cryptate-labeled anti-human IgG (PerkinElmer-AD0212) specific for Fc and anti-His antibody conjugated to SureLight®-Allophycocyanin (APC, PerkinElmer-AD0059H). After centrifugation, the plate was incubated at 25° C. for 60 min. […] Final concentrations in the assay were […], 10 nM PD-L1, nM europium anti-human IgG and 20 nM anti-His-Allophycocyanin. IC50 determination was performed by fitting the curve of percent control activity versus the log of the inhibitor concentration using the GraphPad Prism 5.0 software.
In general terms: Time-resolved FRET reads energy transfer from a long-lived donor to a nearby acceptor.
The molecule `COc1cc2oc(-c3cccc(-c4cccc(/C=C/CCN5CCOCC5)c4C)c3C)nc2cc1CN1CCCCC1C(=O)O` (stereo not drawn) [Compound 7, (E)-1-((2-(2,2′-dimethyl-3′-(4-morpholinobut-1-en-1-yl)-[1,1′-biphenyl]-3-yl)-6-methoxybenzo[d]oxazol-5-yl)methyl)piperidine-2-carboxylic acid] registered an IC50 of less than 25 nM.
The same measure, in the same setting: under `COc1cc2c(cc1CN1CCC(F)(F)CC1C(=O)O)nc(-c1cccc(-c3cccc(OCCCN4CCOCC4)c3)c1C)n2C` (stereo not drawn) [Compound 15, 4,4-difluoro-1-((6-methoxy-1-methyl-2-(2-methyl-3′-(3-morpholinopropoxy)-[1,1′-biphenyl]-3-yl)-1H-benzo[d]imidazol-5-yl)methyl)piperidine-2-carboxylic acid] stands 25 to 150 nM; under `COc1cc2oc(-c3cccc(-c4cccc(OCCCN(C)CCCCO)c4C)c3C)nc2cc1CN1CCCCC1C(=O)O` (stereo not drawn) [Compound 29, 1-((2-(3′-(3-((4-hydroxybutyl)(methyl)amino)propoxy)-2,2′-dimethyl-[1,1′-biphenyl]-3-yl)-6-methoxybenzo[d]oxazol-5-yl)methyl)piperidine-2-carboxylic acid], less than 25 nM.
Same read-out and setting: under `Cc1c(-c2ccccc2)cccc1-c1nc2cc(CN3CCCCC3C(=O)O)c(OC(C)C)cc2o1` (stereo not drawn) [Compound 24, 1-((6-isopropoxy-2-(2-methyl-[1,1′-biphenyl]-3-yl)benzo[d]oxazol-5-yl)methyl)piperidine-2-carboxylic acid] stands less than 25 nM; under `COc1cc2sc(-c3cccc(-c4cccc(OCCCN5CCOCC5)c4)c3C)nc2cc1CN1CCCC1C(=O)O` (stereo not drawn) [Compound 25, ((6-methoxy-2-(2-methyl-3′-(3-morpholinopropoxy)-[1,1′-biphenyl]-3-yl)benzo[d]thiazol-5-yl)methyl)proline], less than 25 nM.
Still for that read-out and setting: to `COc1cc2oc(-c3cccc(-c4cccc(NC(=O)CCN5CCOCC5)c4)c3C)nc2cc1CN1CCOCC1C(=O)O` (stereo not drawn) [Compound 17, 4-((6-methoxy-2-(2-methyl-3′-(3-morpholinopropanamido)-[1,1′-biphenyl]-3-yl)benzo[d]oxazol-5-yl)methyl)morpholine-3-carboxylic acid] belongs less than 25 nM.
On to `CCCNC(=O)NCCN(C)CCCOc1cccc(-c2cccc(-c3nc4cc(CN5CCCCC5C(=O)O)c(OC)cc4o3)c2C)c1C` (stereo not drawn) [Compound 32, 1-((2-(2,2′-dimethyl-3′-(3-(methyl(2-(3-propylureido)ethyl)amino)propoxy)-[1,1′-biphenyl]-3-yl)-6-methoxybenzo[d]oxazol-5-yl)methyl)piperidine-2-carboxylic acid], for which the half-maximal inhibitory concentration (IC50) was less than 25 nM.
Still for that read-out and setting: under `COc1cc2oc(-c3cccc(-c4cccc(OCCCN5CCOCC5)c4C)c3C)nc2cc1CN1CCCCC1C(=O)O` (stereo not drawn) [Compound 3, 1-((2-(2,2′-dimethyl-3′-(3-morpholinopropoxy)-[1,1′-biphenyl]-3-yl)-6-methoxybenzo[d]oxazol-5-yl)methyl)piperidine-2-carboxylic acid] stands 1 nM.
On the same count and under the same terms, to `COc1cc2oc(-c3cccc(-c4cccc(CCCN5CCOCC5)c4)c3C)nc2cc1CN1CCCCC1C(=O)O` (stereo not drawn) [Compound 4, 1-((6-methoxy-2-(2-methyl-3′-(3-morpholinopropyl)-[1,1′-biphenyl]-3-yl)benzo[d]oxazol-5-yl)methyl)piperidine-2-carboxylic acid] belongs less than 25 nM; to `COc1cc2oc(-c3cccc(-c4cccc(CC5CC5CN5CCOCC5)c4C)c3C)nc2cc1CN1CCCCC1C(=O)O` (stereo not drawn) [Compound 28, 1-((2-(2,2′-dimethyl-3′-((2-(morpholinomethyl)cyclopropyl)methyl)-[1,1′-biphenyl]-3-yl)-6-methoxybenzo[d]oxazol-5-yl)methyl)piperidine-2-carboxylic acid], 25 to 150 nM; to `COc1cc2nc(-c3cccc(-c4cccc(OCCCN5CCOCC5)c4F)c3C)n(C)c2cc1N1CCCCC1C(=O)O` (stereo not drawn) [Compound 12, 1-(2-(2′-fluoro-2-methyl-3′-(3-morpholinopropoxy)-[1,1′-biphenyl]-3-yl)-5-methoxy-1-methyl-1H-benzo[d]imidazol-6-yl)piperidine-2-carboxylic acid], less than 25 nM.
On the same count and under the same terms, under `Cc1c(OCCCN2CCOCC2)cccc1-c1cccc(-c2nc3cc(CN(C)CC(=O)O)c(N(C)C)cc3o2)c1C` [Compound 37, N-((2-(2,2′-dimethyl-3′-(3-morpholinopropoxy)-[1,1′-biphenyl]-3-yl)-6-(dimethylamino)benzo[d]oxazol-5-yl)methyl)-N-methylglycine] stands less than 25 nM.
Consider `COc1cc2oc(-c3cccc(-c4cccc(NC(=O)CCN5CCOCC5)c4C)c3C)nc2cc1CN1CCCCC1C(=O)O` (stereo not drawn) [Compound 8, 1-((2-(2,2′-dimethyl-3′-(3-morpholinopropanamido)-[1,1′-biphenyl]-3-yl)-6-methoxybenzo[d]oxazol-5-yl)methyl)piperidine-2-carboxylic acid], for which the IC50 was less than 25 nM.
The same measure, in the same setting: under `COc1cc2oc(-c3cccc(-c4cccc(OCCCN5CCOCC5)c4)c3C)nc2cc1CN1CCCC1C(=O)O` (stereo not drawn) [Compound 20, ((6-methoxy-2-(2-methyl-3′-(3-morpholinopropoxy)-[1,1′-biphenyl]-3-yl)benzo[d]oxazol-5-yl)methyl)proline] stands less than 25 nM.

The same assay, now with this note: HTRF, recombinant human PD-1 (Fc tag) / PD-L1 (His-tag), 25° C., PBS pH 7.4; class symbols; read-out: IC50.
Consider `COc1cc2oc(-c3cccc(-c4cccc(OCCCN5CCOCC5)c4)c3C)nc2cc1CN(C)C` [Compound 2, 1-(6-methoxy-2-(2-methyl-3′-(3-morpholinopropoxy)-[1,1′-biphenyl]-3-yl)benzo[d]oxazol-5-yl)-N,N-dimethylmethanamine], for which the IC50 was in the range of 25 to 150 nM.

The values are drawn from patent publication US20210300909A1, “IMMUNOMODULATORS, COMPOSITIONS AND METHODS THEREOF” (BETTA PHARMACEUTICALS CO., LTD, priority 2018, published 2021).
